Data on 19 molecules can be found in PubChem BioAssay AID248 (DTP/NCI, 2004).

Structures are written as SMILES. Several values for one entry are separate records, joined by “and”; a condition that tells them apart may be missing. Equal values may be shown once. Inconclusive results and toxic doses are left out.

For the assay, the system named is L1210 leukemia ip in BDF1 mice, survival T/C. As to the kind of experiment: NCI In Vivo Anticancer Drug Screen. Data for tumor model L1210 Leukemia (intraperitoneal) in B6D2F1 (BDF1) mice. The settings on record: endpoint: mean survival time, higher = longer survival. The method, boiled down:
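In this screen, tumor-bearing mice given compound are compared to those given vehicle, and their survival values are reported as a treated-to-control quotient.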

Setting [1] is: dose: 12.5 mg/kg/injection, schedule: Q04DX003 (ip), vehicle: saline with Tween-80.
Where [2] appears, read: dose: 25.0 mg/kg/injection, schedule: Q04DX003 (ip), vehicle: saline with Tween-80.
[3] abbreviates: dose: 100.0 mg/kg/injection, schedule: Q04DX002 (ip), vehicle: Klucel (hydroxypropylcellulose) (HPC).
The mark [4] stands for this setting: dose: 200.0 mg/kg/injection, schedule: Q04DX002 (ip), vehicle: Klucel (hydroxypropylcellulose) (HPC).
Where [5] appears, read: dose: 400.0 mg/kg/injection, schedule: Q04DX002 (ip), vehicle: Klucel (hydroxypropylcellulose) (HPC).
Setting [6] is: dose: 100.0 mg/kg/injection, schedule: Q01DX001 (ip), vehicle: saline.
Setting [7] is: dose: 200.0 mg/kg/injection, schedule: Q01DX001 (ip), vehicle: saline.
Where [8] appears, read: dose: 400.0 mg/kg/injection, schedule: Q01DX001 (ip), vehicle: saline.
Where [9] appears, read: dose: 15.0 mg/kg/injection, schedule: Q01DX Z (ip), vehicle: saline.
Setting [10] is: dose: 30.0 mg/kg/injection, schedule: Q01DX Z (ip), vehicle: saline.
Setting [11] is: dose: 100.0 mg/kg/injection, schedule: Q01DX001 (ip), vehicle: Klucel (hydroxypropylcellulose) (HPC).
Where [12] appears, read: dose: 200.0 mg/kg/injection, schedule: Q01DX001 (ip), vehicle: Klucel (hydroxypropylcellulose) (HPC).
Where [13] appears, read: dose: 400.0 mg/kg/injection, schedule: Q01DX001 (ip), vehicle: Klucel (hydroxypropylcellulose) (HPC).
[14] abbreviates: dose: 100.0 mg/kg/injection, schedule: Q01DX009 (ip), vehicle: Klucel (hydroxypropylcellulose) (HPC).
Setting [15] is: dose: 100.0 mg/kg/injection, schedule: Q04DX003 (ip), vehicle: Klucel (hydroxypropylcellulose) (HPC).
Where [16] appears, read: dose: 200.0 mg/kg/injection, schedule: Q01DX009 (ip), vehicle: Klucel (hydroxypropylcellulose) (HPC).
The mark [17] stands for this setting: dose: 200.0 mg/kg/injection, schedule: Q04DX003 (ip), vehicle: Klucel (hydroxypropylcellulose) (HPC).
Where [18] appears, read: dose: 400.0 mg/kg/injection, schedule: Q04DX003 (ip), vehicle: Klucel (hydroxypropylcellulose) (HPC).

As for `O=C(Nc1ccc(S(=O)(=O)Nc2ccc(N=Nc3ccc(S(=O)(=O)Nc4nccs4)cc3)cc2)cc1)C(SC1=NC=NC2=NC=NC21)SC1=NC=NC2=NC=NC21` (stereo not given), the T/C (dose: 75.0 mg/kg/injection, schedule: Q04DX003 (ip), vehicle: saline) is 100 % of control; the T/C (dose: 150.0 mg/kg/injection, schedule: Q04DX003 (ip), vehicle: saline) was 96 % of control; the T/C (dose: 300.0 mg/kg/injection, schedule: Q04DX003 (ip), vehicle: saline) was 98 % of control.

Consider `CCN(c1ccccc1)c1ccc([N+](=O)[O-])c2no[n+]([O-])c12`, for which the T/C reads like this: (dose: 20.0 mg/kg/injection, schedule: Q04DX003 (ip), vehicle: saline with Tween-80) 100 % of control; (dose: 40.0 mg/kg/injection, schedule: Q04DX003 (ip), vehicle: saline with Tween-80) 96 % of control.

For `CCCCCCCCCCCCOC(=O)C[n+]1cccc(C(=O)NC)c1`, the T/C runs as follows: under setting [1], 101 % of control; under setting [2], 97 % of control; (dose: 50.0 mg/kg/injection, schedule: Q04DX003 (ip), vehicle: saline with Tween-80) 95 % of control.

For `CCN(CC)Cc1ccccc1COC(=O)c1ccc(C)cc1`, the T/C runs as follows: (dose: 25.0 mg/kg/injection, schedule: Q04DX002 (ip), vehicle: Klucel (hydroxypropylcellulose) (HPC)) 97 % of control; (dose: 50.0 mg/kg/injection, schedule: Q04DX002 (ip), vehicle: Klucel (hydroxypropylcellulose) (HPC)) 97 % of control; under setting [3], 94 % of control.

With `CC(=O)Nc1ccc(/C=N/NC(=O)CNC(=O)NCc2ccccc2)cc1`, the T/C by setting is: (dose: 50.0 mg/kg/injection, schedule: Q01DX009 (ip), vehicle: saline with Tween-80) 95 % of control; (dose: 100.0 mg/kg/injection, schedule: Q01DX009 (ip), vehicle: saline with Tween-80) 89 % of control; (dose: 200.0 mg/kg/injection, schedule: Q01DX009 (ip), vehicle: saline with Tween-80) 89 % of control.

With `CC(NP1(=O)OCC(C)([N+](=O)[O-])CO1)c1ccccc1` (stereo not given), the T/C (dose: 50.0 mg/kg/injection, schedule: Q01DX001 (ip), vehicle: carboxymethylcellulose (CMC)) was 97 % of control; the T/C (dose: 100.0 mg/kg/injection, schedule: Q01DX001 (ip), vehicle: carboxymethylcellulose (CMC)) is 113 % of control; the T/C (dose: 200.0 mg/kg/injection, schedule: Q01DX001 (ip), vehicle: carboxymethylcellulose (CMC)) is 115 % of control; the T/C (dose: 400.0 mg/kg/injection, schedule: Q01DX001 (ip), vehicle: carboxymethylcellulose (CMC)) is 95 % of control.

For `CCCCNCCC(SSSC(CCNCCCC)c1ccc(Cl)cc1)c1ccc(Cl)cc1` (stereo not given), the T/C is 103 % of control (dose: 6.25 mg/kg/injection, schedule: Q04DX003 (ip), vehicle: saline with Tween-80); 88 % of control under setting [1]; 91 % of control under setting [2].

For `c1ccc2cc(C3OCC4(CCCC4)CO3)ccc2c1`, the T/C is, setting by setting: under setting [3], 103 % of control; under setting [4], 95 % of control; under setting [5], 103 % of control.

Turning to `O=C(c1ccccc1)C1(c2ccccc2)OP(c2ccccc2)(c2ccccc2)(c2ccccc2)CC1c1ccccc1` (stereo not given), the T/C reads like this: under setting [1], 90 % of control; under setting [2], 92 % of control.

For the molecule `CCOC(=O)C(C)(c1[nH]c2ccccc2c1C)c1[nH]c2ccccc2c1C`, the T/C is, setting by setting: (dose: 50.0 mg/kg/injection, schedule: Q01DX001 (ip), vehicle: saline) 103 % of control; under setting [6], 103 % of control; under setting [7], 95 % of control; under setting [8], 89 % of control.

In the case of `NCCc1nc2ccccc2[nH]1`, the T/C runs as follows: under setting [9], 93 % of control; under setting [10], 98 % of control; (dose: 60.0 mg/kg/injection, schedule: Q01DX Z (ip), vehicle: saline) 97 % of control; (dose: 120.0 mg/kg/injection, schedule: Q01DX Z (ip), vehicle: saline) 95 % of control; (dose: 240.0 mg/kg/injection, schedule: Q01DX Z (ip), vehicle: saline) 103 % of control; (dose: 480.0 mg/kg/injection, schedule: Q01DX Z (ip), vehicle: saline) 108 % of control.

`Cc1ccc(S(=O)(=O)NCCCc2c(C)nc(N)n(Cc3cccc([N+](=O)[O-])c3)c2=O)cc1`: the T/C reads like this: under setting [11], 103 % of control; under setting [12], 91 % of control; under setting [13], 103 % of control.

Take `CC(=O)Oc1cccc2ccc(/C=C/c3cccc[n+]3C)nc12`: the T/C by setting is: (dose: 4.0 mg/kg/injection, schedule: Q01DX015 (ip), vehicle: carboxymethylcellulose (CMC)) 95 % of control; (dose: 8.0 mg/kg/injection, schedule: Q01DX015 (ip), vehicle: carboxymethylcellulose (CMC)) 107 % of control; (dose: 16.0 mg/kg/injection, schedule: Q01DX015 (ip), vehicle: carboxymethylcellulose (CMC)) 97 % of control; (dose: 32.0 mg/kg/injection, schedule: Q01DX015 (ip), vehicle: carboxymethylcellulose (CMC)) 102 % of control.

In the case of `O=C(Nc1ccc(F)cc1)Oc1ccccn1`, the T/C is 101 % of control under setting [11]; 95 % of control under setting [14]; 94 % of control and 100 % of control under setting [3]; 101 % of control under setting [15]; 104 % of control under setting [12]; 101 % of control and 87 % of control under setting [16]. Besides, the T/C is, setting by setting: under setting [4], 94 % of control and 97 % of control; under setting [17], 103 % of control; under setting [13], 93 % of control; (dose: 400.0 mg/kg/injection, schedule: Q01DX009 (ip), vehicle: Klucel (hydroxypropylcellulose) (HPC)) 95 % of control and 96 % of control; under setting [5], 94 % of control and 97 % of control; under setting [18], 105 % of control.

Turning to `Nc1cc2c(c(Cl)c1Br)-c1ccccc1C2=O`, the T/C by setting is: under setting [6], 96 % of control; under setting [7], 90 % of control; under setting [8], 94 % of control.

For `CC1(C)CCC(NC(=O)N(CCF)N=O)CC1`, the T/C was 115 % of control (dose: 9.0 mg/kg/injection, schedule: Q01DX001 (ip), vehicle: other); 122 % of control (dose: 13.0 mg/kg/injection, schedule: Q01DX001 (ip), vehicle: other); 188 % of control (dose: 37.0 mg/kg/injection, schedule: Q01DX001 (ip), vehicle: other); 352 % of control (dose: 50.0 mg/kg/injection, schedule: Q01DX001 (ip), vehicle: other); 352 % of control (dose: 75.0 mg/kg/injection, schedule: Q01DX001 (ip), vehicle: other).

For `NC(=O)N1CCN(CCCN2c3ccccc3Sc3cc(Cl)ccc32)CC1`, the T/C is, setting by setting: (dose: 6.25 mg/kg/injection, schedule: Q01DX009 (ip), vehicle: Klucel (hydroxypropylcellulose) (HPC)) 95 % of control; (dose: 12.5 mg/kg/injection, schedule: Q01DX009 (ip), vehicle: Klucel (hydroxypropylcellulose) (HPC)) 110 % of control; (dose: 25.0 mg/kg/injection, schedule: Q01DX009 (ip), vehicle: Klucel (hydroxypropylcellulose) (HPC)) 115 % of control; (dose: 25.0 mg/kg/injection, schedule: Q04DX003 (ip), vehicle: Klucel (hydroxypropylcellulose) (HPC)) 113 % of control; (dose: 50.0 mg/kg/injection, schedule: Q04DX003 (ip), vehicle: Klucel (hydroxypropylcellulose) (HPC)) 109 % of control; under setting [15], 115 % of control.

Consider `CCCCC(/C=N/N=C(N)N)=N\N=C(N)N`, for which the T/C reads like this: under setting [9], 95 % of control; (dose: 15.0 mg/kg/injection, schedule: Q01DX Z (oral), vehicle: saline) 98 % of control; under setting [10], 103 % of control; (dose: 30.0 mg/kg/injection, schedule: Q01DX Z (oral), vehicle: saline) 91 % of control; (dose: 60.0 mg/kg/injection, schedule: Q01DX Z (oral), vehicle: saline) 91 % of control; (dose: 120.0 mg/kg/injection, schedule: Q01DX Z (oral), vehicle: saline) 94 % of control.

For `Cc1ccc(CS)cc1`, the T/C under setting [14] was 101 % of control; the T/C under setting [15] is 97 % of control; the T/C under setting [16] was 93 % of control; the T/C under setting [17] is 97 % of control; the T/C under setting [18] was 92 % of control.
